Converted amounts (≈) assume the structure as drawn.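 96-well plates; 48 h exposure; 5 concentrations. Endpoints by linear interpolation between flanking doses. Not reached: highest tested concentration assigned. Abbreviation: GI50, concentration required for 50% inhibition of growth. The concentration for full growth arrest is given as TGI.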
Tests used:
Assay in all cases: inhibition of tumour cell growth, NCI panel, 48 h
[1] = tested on: MOLT-4 leukemia
[2] = tested on: HCT-116 colon
[3] = tested on: OVCAR-8 ovarian
[4] = tested on: HS 578T breast
[5] = tested on: SF-539 CNS
[6] = tested on: RXF 393 renal
[7] = tested on: MALME-3M melanoma
[8] = tested on: BT-549 breast
[9] = tested on: SR leukemia
[10] = tested on: A498 renal
[11] = tested on: HCC-2998 colon

SMILES	GI50 [1]	TGI [1]	GI50 [2]	TGI [2]	GI50 [3]	TGI [3]	GI50 [4]	TGI [4]	GI50 [5]	TGI [5]	GI50 [6]	TGI [6]	GI50 [7]	TGI [7]	GI50 [8]	TGI [8]	GI50 [9]	TGI [9]	TGI [10]	TGI [11]
O=C1NN(C2=NNC3(C(=O)N2)c2ccccc2-c2ccccc23)C(c2ccccc2)=N/C1=C/c1ccc(Cl)cc1	42.7 µg/mL (≈ 78.4 µM)	> 150 µg/mL	51.2 µg/mL (≈ 94 µM)	> 150 µg/mL	78.1 µg/mL (≈ 143 µM)	> 150 µg/mL	47.7 µg/mL (≈ 87.6 µM)	> 150 µg/mL	50.9 µg/mL (≈ 93.4 µM)	> 150 µg/mL	56.9 µg/mL (≈ 104 µM)	> 150 µg/mL	89.9 µg/mL (≈ 165 µM)	> 150 µg/mL	150 µg/mL (≈ 275 µM)	> 150 µg/mL	62 µg/mL (≈ 114 µM)	> 150 µg/mL		
CCOC(=O)c1csc(NC(=O)C(C)N2CCCC2)n1 (stereo unspecified)						> 100 µM				> 100 µM		> 100 µM							> 100 µM	> 100 µM
COC(=O)C(Cc1cn(C(C)n2cc(CC(NC(C)=O)C(=O)OC)c3ccccc32)c2ccccc12)NC(C)=O (stereo unspecified)		> 100 µM		> 100 µM				> 100 µM						> 100 µM		> 100 µM		> 100 µM	> 100 µM	> 100 µM

Source: PubChem BioAssay (NCI)
